The target in test [1] is T1, interaction between the KRAS protein subtype G12D and the SOS1 protein (Homo sapiens, UniProt Q07889).
T1 construct: GST-TEV-SOS1(564-1049) (Viva Biotech, SOS1-191010); purchased SOS1: Viva Biotech; KRAS: Shanghai Panchao Biotechnology Co., Ltd. SOS1-191010
T1 sequence (Q07889 564-1049): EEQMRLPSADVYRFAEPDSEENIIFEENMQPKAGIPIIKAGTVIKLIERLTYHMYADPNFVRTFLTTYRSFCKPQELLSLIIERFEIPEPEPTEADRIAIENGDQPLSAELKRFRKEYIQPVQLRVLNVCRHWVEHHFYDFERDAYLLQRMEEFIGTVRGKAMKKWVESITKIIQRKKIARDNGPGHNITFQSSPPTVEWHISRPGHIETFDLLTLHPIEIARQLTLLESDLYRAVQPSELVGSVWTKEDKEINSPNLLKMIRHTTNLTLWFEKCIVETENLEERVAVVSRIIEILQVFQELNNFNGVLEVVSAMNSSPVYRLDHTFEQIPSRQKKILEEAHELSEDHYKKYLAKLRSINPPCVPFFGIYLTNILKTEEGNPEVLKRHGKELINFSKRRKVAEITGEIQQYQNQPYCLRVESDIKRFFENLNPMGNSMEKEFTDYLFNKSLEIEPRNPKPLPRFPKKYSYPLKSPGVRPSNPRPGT
As to the kind of experiment: Inhibition of the interaction between KRAS G12D and SOS1 protein (AlphaLISA/AlphaScreen). The test is classed as binding. The following applies: KRAS G12D + GST-TEV-SOS1(564-1049) + GDP. As for the experimental part:
(§1) Test Example 1: Inhibitory Ability of Compounds of the Present Disclosure to the Interaction Between the KRAS Protein Subtype G12D or G12V and the SOS1 Protein. The inhibitory ability of the compounds of the present disclosure to the interaction between the KRAS protein subtype G12D or G12V and the SOS1 protein was determined by the following method. The experimental method was briefly described as follows:
(§2) 1. The experimental buffer was prepared prior to the start of the experiment: 1×PBS+0.1% BSA+0.05% tween 20.
(§3) 2. KRAS G12D and KRAS-G12V proteins were labeled with biotin using the biotin labeling kit.
(§4) 1. Firstly, the biotin-labeled KRAS G12D or KRAS G12V protein was mixed and incubated with the SOS1 protein and GDP for later use.
(§5) 2. AlphaLISA glutathione acceptor beads and AlphaScreen streptavidin donor beads were mixed at a ratio of 1:1 to make the concentration of 40 μg/mL for later use.
(§6) 3. The compound was formulated with the experimental buffer to obtain 10 concentration points by 5-fold gradient dilution from an initial concentration of 40 μM.
(§7) 4. In the 384-well microplate, 10 μL of a mixture of KRAS G12D or KRAS G12V protein and SOS1 and GDP and 5 μL of the diluted compound were added to each well and incubated at room temperature for 30 min away from the light.
(§8) 5. Then, 5 μL of a mixture of AlphaLISA glutathione acceptor beads and AlphaScreen streptavidin donor beads was added to each well and incubated at room temperature for 60 min away from the light.
(§9) 6. The fluorescence values were read on a multi-mode microplate reader.
(§10) 7. IC50 values of the compounds were calculated using Graphpad Prism.

In test [2] the target is T2, interaction between the KRAS protein subtype G12V and the SOS1 protein (Homo sapiens, UniProt Q07889).
T2 construct: GST-TEV-SOS1(564-1049) (Viva Biotech, SOS1-191010); purchased SOS1: Viva Biotech; KRAS: Shanghai Panchao Biotechnology Co., Ltd. SOS1-191010
T2 sequence (Q07889 564-1049): T1 sequence (Q07889 564-1049)
The test can be described thus: Inhibition of the interaction between KRAS G12V and SOS1 protein (AlphaLISA/AlphaScreen). Particulars: KRAS G12V + GST-TEV-SOS1(564-1049) + GDP. The test is classed as binding. As to the method:
as §1, §2, §3, §4, §5, §6, §7, §8, §9, §10

The test system of another test is H358 cells. The test can be described thus: Inhibition of proliferation of H358 cells (CellTiter-Glo 3D). In kind it is cell-based. Particulars: Homo sapiens, NCI-H358, low adsorption plate, 120 h. As to the method:
This example is intended to evaluate the inhibition effect of the compounds of the present disclosure on the KRAS target (containing the G12C mutation) by testing the inhibition effect of the compounds of the present disclosure on the proliferation of H358 cells.
H358 cells (ATCC, CRL-5807) were cultured in a complete medium, namely RPMI1640 medium (Hyclone, SH30809.01) containing 10% fetal bovine serum (Corning, 35-076-CV). On the first day of the experiment, the H358 cells were seeded into a 96-well low adsorption plate (Coming, CLS7007-24EA) at a density of 1500 cells/well with a complete medium to form 90 μL of cell suspension per well. The plate was centrifuged at 2000 rpm for 5 min at room temperature and then incubated overnight in a cell incubator at 37° C. with 5% CO2. The next day, 10 μL of test compound diluted in a gradient prepared with the complete medium was added to each well. The final concentrations of the compound were 9 concentration points obtained by 5-fold gradient dilution from 10 μM. A blank control containing 0.1% DMSO was set. The plate was incubated in a cell incubator at 37° C. with 5% CO2 for 120 h. On the seventh day, the 96-well cell culture plate was taken out and 50 μL of CellTiter-Glo® 3D reagent (Promega, G9682) was added into each well. The plate was shaken at room temperature for 25 min, pipetted and mixed well, from which 50 μL of the mixture was transferred into a white impermeable 96-well plate (PE, 6005290). The luminescence signal values were read using a multi-mode microplate reader (PerkinElmer, VICTOR 3).
IC50 values for the inhibitory activity of the compounds were calculated using Graphpad Prism software.

In test [3] the test system is ERK phosphorylation of H358 cells. As to the kind of experiment: Inhibition of ERK phosphorylation of H358 cells (HTRF pERK/total ERK). In kind it is cell-based. Particulars: Homo sapiens, NCI-H358, 1 h incubation, pERK/total ERK ratio. As for the experimental part:
This experiment is intended to evaluate the inhibition effect of the compounds of the present disclosure on the KRAS target (containing the G12C mutation) according to IC50 by determining the inhibition effect of the compounds on ERK phosphorylation of the cells.
H358 cells (ATCC, CRL-5807) were cultured in RPMI1640 (Hyclone, SH30809.01) complete medium containing 10% fetal bovine serum. On the first day of the experiment, the H358 cells were seeded into a 96-well plate at a density of 25,000 cells/well with a complete medium to form 190 μL of cell suspension per well. The plate was incubated overnight in a cell incubator at 37° C. with 5% CO2. The next day, 10 μL of test compound diluted in a gradient prepared with the complete medium was added to each well. The final concentrations of the compound were 9 concentration points obtained by 5-fold gradient dilution from 10 μM. A blank control containing 0.1% DMSO was set. The plate was incubated in a cell incubator at 37° C. with 5% CO2 for 1 h. 1 h later, the 96-well cell culture plate was taken out, the medium was removed by pipetting, 200 μL PBS (Shanghai BasalMedia Technologies Co., Ltd., B320) was added to each well, and the cells were washed once. PBS was removed by pipetting, 50 μL of lysis buffer (Cisbio, 64KL1FDF) containing a blocking reagent (Cisbio, 64KB1AAC) was added to each well, and the plate was shaken on a shaker at room temperature for 40 min for lysis. After lysis, the lysate was pipetted and mixed well, 16 μL of lysate was transferred from each well to each of two HTRF 96-well assay plates (Cisbio, 66PL96100), and then 4 μL of premixed phospho-ERK1/2 antibody solution (Cisbio, 64AERPEG) or 4 μL of premixed total-ERK1/2 antibody solution (Cisbio, 64NRKPEG) was added to each of the two plates. The microplate was sealed with a sealing membrane, centrifuged for 1 min in a microplate centrifuge, and incubated overnight at room temperature away from the light. On the third day, the fluorescence values at an excitation wavelength of 337 nm and at emission wavelengths of 665 nm and 620 nm were read using a PHERAstar multi-mode microplate reader (BMG Labtech, S/N 471-0361).
IC50 values for inhibitory activity of the compounds were calculated using Graphpad Prism software based on compound concentrations and pERK/total ERK ratio.

The text below walks through data of patent US20230219951A1, “PYRIDINE-PYRIMIDINE DERIVATIVE, PREPARATION METHOD THEREFOR AND PHARMACEUTICAL USE THEREOF” (Jiangsu Hengrui Pharmaceuticals Co., Ltd., priority 2020, published 2023).

Each structure is given as a SMILES string.

Regarding `Cc1nc(N[C@H](C)c2cccc(C(F)(F)CO)c2F)c2cc(OC3CCOC3)c(=O)[nH]c2n1` (stereo partly drawn) [Example 9, 4-(((R)-1-(3-(1,1-difluoro-2-hydroxyethyl)-2-fluorophenyl)ethyl)amino)-2-methyl-6-(((R)-tetrahydrofuran-3-yl)oxy)pyrido[2,3-d]pyrimidin-7(8B)-one], the IC50 turned out to be 8 nM in test [1], 41 nM in test [2] and 106 nM in the test on H358 cells.
Regarding `CC(=O)N1CC[C@H](Oc2cc3c(N[C@H](C)c4cccc(C(F)F)c4F)nc(C)nc3[nH]c2=O)C1` [Example 24, 6-(((S)-1-acetylpyrrolidin-3-yl)oxy)-4-(((R)-1-(3-(difluoromethyl)-2-fluorophenyl)ethyl)amino)-2-methylpyrido[2,3-d]pyrimidin-7(8H)-one], the IC50 in test [1] is 49 nM; in test [2], 133 nM.
On to `CNC(=O)C1CCC(O)(c2cc3c(N[C@H](C)c4cccc(C(F)F)c4F)nc(C)nc3[nH]c2=O)CC1` (stereo partly drawn) [Example 29, (R)-4-(4-((1-(3-(difluoromethyl)-2-fluorophenyl)ethyl)amino)-2-methyl-7-oxo-7,8-dihydropyrido[2,3-d]pyrimidin-6-yl)-4-hydroxy-N-methylcyclohexane-1-carboxamide], for which the IC50 in test [1] is 91 nM; in test [2] it was 101 nM; in the test with H358 cells it was 545 nM.
Turning to `Cc1nc(N[C@H](C)c2cccc(C(F)F)c2F)c2cc(C3(O)CCN(C(=O)CF)CC3)c(=O)[nH]c2n1` (racemic) [Example 22, rac-(R)-4-((1-(3-(difluoromethyl)-2-fluorophenyl)ethyl)amino)-6-(1-(2-fluoroacetyl)-4-hydroxypiperidin-4-yl)-2-methylpyrido[2,3-d]pyrimidin-7(8H)-one], the IC50 in test [1] was 14 nM; in test [2], 27 nM.
As to `CC(=O)N1CC(Oc2cc3c(N[C@H](C)c4cccc(C(F)F)c4F)nc(C)nc3[nH]c2=O)C1` (racemic) [Example 26, rac-(R)-6-((1-acetylazetidin-3-yl)oxy)-4-((1-(3-(difluoromethyl)-2-fluorophenyl)ethyl)amino)-2-methylpyrido[2,3-d]pyrimidin-7(8H)-one], the results for the IC50 (in test [1]; in test [2]; in the test with H358 cells) were 44 nM, 65 nM and 346 nM, respectively.
In the case of `Cc1nc(N[C@H](C)c2cccc(C(F)F)c2F)c2cc(OC3CCS(=O)(=O)CC3)c(=O)[nH]c2n1` [Example 23, (R)-4-((1-(3-(difluoromethyl)-2-fluorophenyl)ethyl)amino)-6-((1,1-dioxidotetrahydro-2H-thiopyran-4-yl)oxy)-2-methylpyrido[2,3-d]pyrimidin-7(8H)-one], the IC50 in test [1] came out at 10 nM; in test [2], 89 nM.
The like results for `Cc1nc(N[C@H](C)c2cccc(C(F)F)c2F)c2cc(C3(O)CCOCC3)c(=O)[nH]c2n1` [Example 19, (R)-4-((1-(3-(difluoromethyl)-2-fluorophenyl)ethyl)amino)-6-(4-hydroxytetrahydro-2H-pyran-4-yl)-2-methylpyrido[2,3-d]pyrimidin-7(8H)-one] were, in that order, 47 nM and 154 nM.
On to `Cc1nc(N[C@H](C)c2cc(N)cc(C(F)(F)F)c2)c2cc(C3=CCOCC3)c(=O)[nH]c2n1` [Example 3, (R)-4-((1-(3-amino-5-(trifluoromethyl)phenyl)ethyl)amino)-6-(3,6-dihydro-2H-pyran-4-yl)-2-methylpyrido[2,3-d]pyrimidin-7(8H)-one], for which the IC50 in test [3] is 55 nM.
For `Cc1nc(N[C@H](C)c2cccc(C(F)F)c2F)c2cc(C3CCOCC3)c(=O)[nH]c2n1` [Example 6, (R)-4-((1-(3-(difluoromethyl)-2-fluorophenyl)ethyl)amino)-2-methyl-6-(tetrahydro-2H-pyran-4-yl)pyrido[2,3-d]pyrimidin-7(8H)-one], the IC50 turned out to be 30 nM in test [1], 56 nM in test [2] and 345 nM in the test on H358 cells.
With `Cc1nc(N[C@H](C)c2cccc(C(F)F)c2F)c2cc(O[C@H]3CCOC3)c(=O)[nH]c2n1` [Example 10, 4-(((R)-1-(3-(difluoromethyl)-2-fluorophenyl)ethyl)amino)-2-methyl-6-(((S)-tetrahydrofuran-3-yl)oxy)pyrido[2,3-d]pyrimidin-7(8H)-one], the IC50 amounted to 34 nM in test [1] and 80 nM in test [2].
With `Cc1nc(N[C@H](C)c2cccc(C(F)F)c2F)c2cc(C3=CCOCC3)c(=O)[nH]c2n1` [Example 5, (R)-4-((1-(3-(difluoromethyl)-2-fluorophenyl)ethyl)amino)-6-(3,6-dihydro-2H-pyran-4-yl)-2-methylpyrido[2,3-d]pyrimidin-7(8H)-one], the figures for the IC50 (in test [1]; in test [2]; in the test on H358 cells) were 42 nM, 79 nM and 461 nM, respectively.
In the case of `Cc1nc(N[C@H](C)c2cccc(C(F)F)c2F)c2cc(C3=CCC(C(=O)N(C)C)CC3)c(=O)[nH]c2n1` (stereo partly drawn) [Example 13, 4-(4-(((R)-1-(3-(difluoromethyl)-2-fluorophenyl)ethyl)amino)-2-methyl-7-oxo-7,8-dihydropyrido[2,3-d]pyrimidin-6-yl)-N,N-dimethylcyclohex-3-ene-1-carboxamide], the IC50 in test [1] was found to be 21.5 nM; in test [2] it was 79 nM; with H358 cells it was 137 nM.
